Patent publication US20080305186A1, “Method and Composition for the Treatment of Cardiac Hypertrophy” (BOARD OF REGENTS, THE UNIVERSITY OF TEXAS SYSTEM, priority 2007, published 2008)

Tested on: cardiac gene expression
Assay: Microarray analysis of cardiac gene expression (GeneChip Mouse Genome 430 2.0)
Assay type: in vivo, mice
Method: Microarray Sample Preparation and Analysis. Animal hearts were rapidly removed, and the atria and right ventricles were cut and immediately plunged into TRIzol Reagent (Life Technologies). Total RNA was isolated following the manufacturer's instructions, purified by phenol-chloroform extraction and then ethanol precipitation, and 20 μg further processed for microarray analysis. Briefly, cDNA synthesis, in vitro transcription, and labeling and fragmentation to produce the oligonucleotide probes were performed as instructed by the GeneChip manufacturer (Affymetrix). The probes were first hybridized to a test array (Affymetrix) and then to the GeneChip Mouse Genome 430 2.0 Array, using the GeneChip Hybridization Oven 640. The chips were washed in a GeneChip Fluidics Station 450 (Affymetrix), and the results were visualized with a GeneChip G7 scanner (Affymetrix). RMA normalization, pairwise comparisons, Student's t test and Benjamini and Hochberg correction were subsequently performed using GeneSifter (VizX Labs, Seattle, Wash.) and Spotfire DecisionSite 8.3 (Spotfire, Inc., Somerville, Mass.).
Effects on Gene Expression Profile. […] One mouse heart was used for each array, and was performed in triplicate, generating a total of 12 arrays. GeneSifter was used to perform RMA normalization, pairwise comparisons of averaged signal intensity values, and Student's t-test with Benjamini and Hochberg correction, and Spotfire was used to perform pairwise comparisons. […] Additionally, genes that were altered between any two N or cardiac hypertrophy samples were removed, as these alterations most likely represented normal variations between mice.

[1] = CH vs drug-treated isoproterenol mice
[2] = heart, drug + isoproterenol vs isoproterenol only
[3] = mouse heart, vs isoproterenol only (CH), CH vs normal 2.1
[4] = mouse heart, vs isoproterenol only (CH), CH vs normal 2.2
[5] = mouse heart, vs isoproterenol only (CH), CH vs normal 2.6
[6] = mouse heart, vs isoproterenol only (CH), CH vs normal 2.7
[7] = mouse heart, vs isoproterenol only (CH), CH vs normal 2.9
[8] = mouse heart, vs isoproterenol only (CH), CH vs normal 3.2
[9] = mouse heart, vs isoproterenol only (CH), CH vs normal 3.3
[10] = mouse heart, vs isoproterenol only (CH), CH vs normal 3.7
[11] = mouse heart, vs isoproterenol only (CH), CH vs normal 4.9

For `NC(=O)N1c2ccccc2C=Cc2ccccc21` [carbamazepine], the “Number of Altered Genes, Average FC (1.5-fold)” value [1] was 709, the “Number of Altered Genes, Average FC (2-fold)” value [1] was 1 and the “Number of Altered Genes, Minus disease variability” value [1] was 1. For the same molecule, the “Number of Altered Genes, Minus natural variability” value [1] was 1, the “Number of Altered Genes, Reproducible” value [1] was 1 and the “Number of Altered Genes, Student's t test” value [1] was 306. The “Number of Altered Genes, Correction” value (CH vs drug-treated isoproterenol mice, Benjamini and Hochberg) was 1, the “Number of Altered Genes, Disease-specific” value (CH vs drug-treated isoproterenol mice, of 779 genes altered N vs CH, altered in the reverse direction) was 1 and the “Cytokine inducible SH2-containing protein 3 (Socs3), Microarray FC” value [2] was −2.4 FC. For the same molecule, the “GATA binding protein 4 (Gata4), Microarray FC” value [2] was 2.1 FC, the “Lipocalin 2 (Lcn2), Microarray FC” value [2] was −1.6 FC and the “NADPH oxidase 4 (Nox4), Microarray FC” value [2] was −1.9 FC. For the same molecule, the “Oncostatin receptor (Osmr), Microarray FC” value [2] was −1.7 FC, the “SET and MYND domain containing 1 (Smyd1), Microarray FC” value [2] was 1.7 FC and the “Serine protease inhibitor 2-2 (Spi2-2) (Serpin3n), Microarray FC” value [2] was −2.3 FC. The “FC Procollagen, type IV, alpha 1 (Col4a1), AW536690” value (mouse heart, vs isoproterenol only (CH), CH vs normal 1.6) was −1.8 fold, the “FC Fatty acid binding protein 4, adipocyte (Fabp4), BC002148” value (mouse heart, vs isoproterenol only (CH), CH vs normal 1.8) was −1.6 fold and the “FC Adenosine deaminase (Ada), NM_007398” value [3] was −2.2 fold. The “FC EST, AV032095” value [3] was −1.6 fold, the “FC EST, BE630073” value [3] was −1.6 fold and the “FC Amine oxidase, copper containing 3 (Aoc3), NM_009675” value [4] was −1.8 fold. For the same molecule, the “FC CD14 antigen (CD14), NM_009841” value [4] was −1.6 fold, the “FC Flavin containing monooxygenase 1 (Fmo1), BC011229” value [4] was −1.6 fold and the “FC cDNA, BG075321” value [4] was −1.6 fold. The “FC A disintegrin-like and metallopeptidase (reprolysin type) with thrombospondin (ADAMTS)-like 2 (Adamtsl2), AK020831” value (mouse heart, vs isoproterenol only (CH), CH vs normal 2.3) was −1.6 fold, the “FC Purine-nucleoside phosphorylase (Pnp), BC003788” value (mouse heart, vs isoproterenol only (CH), CH vs normal 2.4) was −1.7 fold and the “FC ESTs, AI447357” value (mouse heart, vs isoproterenol only (CH), CH vs normal 2.5) was −1.9 fold. The “FC Dipeptidase 1 (Dpep1), NM_007876” value [5] was −1.6 fold, the “FC Fc fragment of IgG, low affinity IIIa, receptor (Fcrl3), BC027310” value [5] was −1.6 fold and the “FC cDNA, AW552579” value [5] was −1.7 fold. For the same molecule, the “FC G7e protein, NM_033075” value [6] was −1.6 fold, the “FC Mitogen activated protein kinase kinase kinase 8 (Map3k8), NM_007746” value [6] was −1.7 fold and the “FC cDNA, BC019553” value [6] was −2.2 fold. For the same molecule, the “FC Decorin (Dcn), AV321547” value [7] was −1.6 fold, the “FC Glycoprotein (transmembrane) nmb (Gpnmb), NM_053110” value [7] was −1.5 fold and the “FC C-type lectin domain family 1, member a (Clec1a), BB035924” value (mouse heart, vs isoproterenol only (CH), CH vs normal 3.1) was −1.6 fold. The “FC CUB and zona pellucida-like domains 1 (Cuzd1), NM_008411” value [8] was −1.5 fold, the “FC G7e protein, BC027314” value [8] was −2.2 fold and the “FC Serine (or cysteine) peptidase inhibitor, clade A, member 3G (Serpina3g), BC002065” value [8] was −1.7 fold. The “FC cDNA, BG297038” value [8] was −2.9 fold, the “FC Pyruvate dehydrogenase kinase 4 (Pdk4), NM_013743” value [9] was 1.7 fold and the “FC cDNA, AK012898” value [9] was −2.0 fold. For the same molecule, the “FC TRAF2 and K interacting kinase (Tnik), AI117633” value (mouse heart, vs isoproterenol only (CH), CH vs normal 3.4) was −1.7 fold, the “FC Interleukin-1 receptor-associated kinase 3 (Irak3), AV228493” value (mouse heart, vs isoproterenol only (CH), CH vs normal 3.5) was −1.6 fold and the “FC Mcf.2 transforming sequee-like (Mcf21), AV293368” value [10] was −1.5 fold. The “FC cDNA, BE956710” value [10] was −1.7 fold, the “FC Lipopolysaccharide binding protein (Lbp), NM_008489” value (mouse heart, vs isoproterenol only (CH), CH vs normal 3.8) was −1.8 fold and the “FC Nuclear factor of kappa light polypeptide gene enhaer in B-cells inhibitor, zeta (Nfkbiz), NM_030612” value (mouse heart, vs isoproterenol only (CH), CH vs normal 3.9) was −1.6 fold. For the same molecule, the “FC Colony stimulating factor 2 receptor, beta 2, low-affinity (granulocyte-macrophage) (Csf2rb2), NM_007781” value (mouse heart, vs isoproterenol only (CH), CH vs normal 4.1) was −1.8 fold, the “FC NADPH oxidase 4 (Nox4), BC021378” value (mouse heart, vs isoproterenol only (CH), CH vs normal 4.3) was −1.9 fold and the “FC Calcium-sensitive chloride conductae protein-1 (Clca1), AF047838” value (mouse heart, vs isoproterenol only (CH), CH vs normal 4.4) was −1.8 fold. For the same molecule, the “FC cDNA, AK008807” value (mouse heart, vs isoproterenol only (CH), CH vs normal 4.5) was −1.7 fold, the “FC Serum amyloid A 3 (Saa3), NM_011315” value (mouse heart, vs isoproterenol only (CH), CH vs normal 4.7) was −2.0 fold and the “FC Caer related gene-liver 1 (CRG-L1), AF282864” value [11] was −1.5 fold. The “FC Calcium/calmodulin-dependent protein kinase II, beta (Camk2b), BG862223” value [11] was −2.8 fold, the “FC Oostatin receptor (Osmr), NM_011019” value (mouse heart, vs isoproterenol only (CH), CH vs normal 5.1) was −1.7 fold and the “FC Cytokine inducible SH2-containing protein 3 (Socs3), BB241535” value (mouse heart, vs isoproterenol only (CH), CH vs normal 6.0) was −2.3 fold.
